The subject of data set [1] is Arabidopsis. In words: Combinatorial root growth assay with plant growth media supplied with Trp. In kind it is in vivo. The procedure: To further test this hypothesis, we supplied plant growth media with Trp (FIG. 4, FIGS. 13 and 14) and repeated the combinatorial assay. […] In contrast, root growth might improve if the WCS417 strain are metabolically active only around the root tips. […] However, at 10 μM, Trp inhibited the root growth of plants colonized with the wild-type WCS417 strain. […] Additionally, we inoculated the engineered strains to the Trp-overproducing Arabidopsis mutant line. Root growth and development of this Arabidopsis mutant line are not also impaired (FIG. 4).
First, Arabidopsis seeds are sterilized with 70% ethanol for 2 min and 10% bleach for 5 min. These seeds are rinsed five times with sterile water. Sterilized seeds are kept in a 4° C. fridge for 3 days and then are horizontally individually dispensed on the surface of 1/2 MS agar plates. The plates are vertically incubated in a plant growth chamber under a light cycle of 8 h dark and 16 h light for 6 days. […] On the following day, cultures are washed three times with sterile 10 mM MgCl2 solution and measured for values at OD600nm using an Eppendorf Spectro reader. Uniformly germinated 6-day-old seedlings are inoculated with 1 μL of OD600nm=0.2 culture of engineered WCS417 strains. […] Collected photos are analyzed using EZ-Root-VIS software (Shahzad et al., 2018) for primary root length, lateral root number, and total length.

In data set [2] the test system is Arabidopsis roots. The note with it: in vivo; cited from earlier work.

Turning to `N[C@@H](Cc1c[nH]c2ccccc12)C(=O)O` [Trp, tryptophan], the root growth entry in data set [1] (0.1 μM of Trp in plant growth media) was “did not see much impact”. Besides, the “root growth of plants colonized with the wild-type WCS417 strain” value in data set [1] (10 μM Trp in plant growth media) is listed as “inhibited”.

With `O=C(O)Cc1c[nH]c2ccccc12` [IAA, Indole-3-acetic acid], the “level of externally added IAA that significantly changes root phenotypes” value in data set [2] was 0.01 to 0.1 µM.
